In one assay the target is T1, FAAH (Homo sapiens, UniProt O00519).
T1 sequence (O00519 1-579): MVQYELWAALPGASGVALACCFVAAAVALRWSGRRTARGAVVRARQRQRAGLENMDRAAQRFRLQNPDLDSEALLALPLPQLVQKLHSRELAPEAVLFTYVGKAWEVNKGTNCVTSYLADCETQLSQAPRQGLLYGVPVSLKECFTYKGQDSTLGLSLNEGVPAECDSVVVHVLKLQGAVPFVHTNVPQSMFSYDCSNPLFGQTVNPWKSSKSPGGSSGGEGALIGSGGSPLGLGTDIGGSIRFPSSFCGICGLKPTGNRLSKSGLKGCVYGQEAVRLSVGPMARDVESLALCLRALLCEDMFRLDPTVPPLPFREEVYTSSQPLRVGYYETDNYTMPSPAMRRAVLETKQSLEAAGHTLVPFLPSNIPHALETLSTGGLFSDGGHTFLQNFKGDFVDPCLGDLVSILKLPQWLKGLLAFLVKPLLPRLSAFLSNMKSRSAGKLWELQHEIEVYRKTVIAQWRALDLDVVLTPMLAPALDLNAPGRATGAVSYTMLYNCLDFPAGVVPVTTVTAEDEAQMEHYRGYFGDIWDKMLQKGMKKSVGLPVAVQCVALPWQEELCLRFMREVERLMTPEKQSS
The experiment in a line: Assay Method 1: FAAH assay, 3H-anandamide hydrolysis in cell homogenate.

For the next assay, the target named is T2, Rat FAAH (Rattus norvegicus, UniProt P97612).
T2 construct: expressed in transfected cells
T2 sequence (P97612 1-579): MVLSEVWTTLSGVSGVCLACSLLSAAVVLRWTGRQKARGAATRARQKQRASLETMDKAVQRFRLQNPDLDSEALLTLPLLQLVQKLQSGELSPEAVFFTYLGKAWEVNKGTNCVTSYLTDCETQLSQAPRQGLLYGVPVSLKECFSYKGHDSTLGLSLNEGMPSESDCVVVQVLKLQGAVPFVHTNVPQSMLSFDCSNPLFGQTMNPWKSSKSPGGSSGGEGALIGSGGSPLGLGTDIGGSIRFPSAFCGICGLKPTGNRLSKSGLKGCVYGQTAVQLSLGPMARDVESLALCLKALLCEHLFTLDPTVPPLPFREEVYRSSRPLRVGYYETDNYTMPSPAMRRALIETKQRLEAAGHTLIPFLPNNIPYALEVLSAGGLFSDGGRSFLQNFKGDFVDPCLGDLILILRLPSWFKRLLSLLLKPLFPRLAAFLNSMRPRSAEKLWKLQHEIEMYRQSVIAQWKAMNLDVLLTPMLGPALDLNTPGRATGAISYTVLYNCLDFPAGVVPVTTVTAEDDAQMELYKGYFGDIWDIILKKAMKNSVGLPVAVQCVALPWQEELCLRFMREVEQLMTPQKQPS
Description: Assay Method 2: FAAH assay, 3H-anandamide hydrolysis in cell homogenate. In kind it is biochemical. The following applies: average of results obtained, > value = solubility limit or highest concentration tested. Here is the method: A. Transfection of Cells with Rat FAAH
The assay mixture consisted of 50 μL of the cell homogenate, 10 μL of the test compound, and 40 μL of anandamide [1-^3H-ethanolamine] (^3H-AEA, Perkin-Elmer, 10.3 Ci/mmol), which was added last, for a final tracer concentration of 80 nM. The reaction mixture was incubated at rt for 1 h. During the incubation, 96-well Multiscreen filter plates (catalog number MAFCNOB50; Millipore, Bedford, Mass., USA) were loaded with 25 μL of activated charcoal (Multiscreen column loader, catalog number MACL09625, Millipore) and washed once with 100 μL of MeOH. […] After the 1 h incubation, 60 μL of the reaction mixture were transferred to the charcoal plates, which were then assembled on top of the DYNEX plates using Centrifuge Alignment Frames (catalog number MACF09604, Millipore). The unbound labeled ethanolamine was centrifuged through to the bottom plate (5 min at 2000 rpm), which was preloaded with the scintillant, as described above. The plates were sealed and left at rt for 1 h before counting on a Hewlett Packard TopCount.

`O=C(Nc1noc2ncccc12)N1CCN(Cc2cccc(Oc3cccc(Br)c3)c2)CC1` [Example 35, 4-[3-(3-Bromo-phenoxy)-benzyl]-piperazine-1-carboxylic acid isoxazolo[5,4-b]pyridin-3-ylamide]: the figures for the concentration for half-maximal inhibition (IC50) on FAAH and against Rat FAAH were 150 nM and 300 nM, respectively.
For `O=C(Nc1noc2ncccc12)N1CCN(Cc2cccc(Oc3cccc(OC(F)(F)F)c3)c2)CC1` [Example 36, 4-[3-(3-Trifluoromethoxy-phenoxy)-benzyl]-piperazine-1-carboxylic acid isoxazolo[5,4-b]pyridin-3-ylamide] the same measures were 1400 nM and 6000 nM.
The matching figures for `O=C(Nc1noc2ncccc12)N1CCN(Cc2cccc(Oc3ccc(OC(F)(F)F)cc3)c2)CC1` [Example 37, 4-[3-(4-Trifluoromethoxy-phenoxy)-benzyl]-piperazine-1-carboxylic acid isoxazolo[5,4-b]pyridin-3-ylamide]: 200 nM and 100 nM.
The matching figures for `O=C(Nc1noc2cnccc12)N1CCN(Cc2ccc3c(c2)OC(F)(F)O3)CC1` [Example 39, 4-(2,2-Difluoro-benzo[1,3]dioxol-5-ylmethyl)-piperazine-1-carboxylic acid isoxazolo[5,4-c]pyridin-3-ylamide]: 6 nM and 11 nM.
Consider `O=C(Nc1noc2cccnc12)N1CCN(Cc2ccc3c(c2)OC(F)(F)O3)CC1` [Example 42, 4-(2,2-Difluoro-benzo[1,3]dioxol-5-ylmethyl)-piperazine-1-carboxylic acid isoxazolo[4,5-b]pyridin-3-ylamide], for which the IC50 – broadly, the concentration needed to halve the response being measured – came out at 2000 nM against FAAH and 220 nM against Rat FAAH.
For `O=C(Nc1noc2cccnc12)N1CCN(Cc2ccc(Cl)c(Cl)c2)CC1` [Example 43, 4-(3,4-Dichloro-benzyl)-piperazine-1-carboxylic acid isoxazolo[4,5-b]pyridin-3-ylamide] the same measures were 250 nM and 112 nM.
For `O=C(Nc1cnc2[nH]ccc2c1)N1CCN(Cc2ccc3c(c2)OC(F)(F)O3)CC1` [Example 44, 4-(2,2-Difluoro-benzo[1,3]dioxol-5-ylmethyl)-piperazine-1-carboxylic acid (1H-pyrrolo[2,3-b]pyridin-5-yl)-amide] the same measures were 16 nM and 9 nM.
The matching figures for `O=C(Nc1cnc2cc[nH]c2c1)N1CCN(Cc2ccc3c(c2)OC(F)(F)O3)CC1` [Example 45, 4-(2,2-Difluoro-benzo[1,3]dioxol-5-ylmethyl)-piperazine-1-carboxylic acid (1H-pyrrolo[3,2-b]pyridin-6-yl)-amide]: 230 nM and 230 nM.
For the compound `O=C(Nc1ccc2ncoc2c1)N1CCN(Cc2cccc(Oc3ccc(Cl)cc3)c2)CC1` [Example 46, 4-[3-(4-Chloro-phenoxy)-benzyl]-piperazine-1-carboxylic acid benzooxazol-6-ylamide], the IC50 against FAAH was 27 nM; at Rat FAAH, 7000 nM.
For `O=C(Nc1ccc2ncoc2c1)N1CCN(Cc2ccc3c(c2)OC(F)(F)O3)CC1` [Example 47, 4-(2,2-Difluoro-benzo[1,3]dioxol-5-ylmethyl)-piperazine-1-carboxylic acid benzooxazol-6-ylamide], the half-maximal inhibitory concentration (IC50) against FAAH was found to be 2000 nM; at Rat FAAH, 3000 nM.
Consider `O=C(Nc1ccc2nccn2c1)N1CCN(Cc2ccc3c(c2)OC(F)(F)O3)CC1` [Example 51, 4-(2,2-Difluoro-benzo[1,3]dioxol-5-ylmethyl)-piperazine-1-carboxylic acid imidazo[1,2-a]pyridin-6-ylamide], for which the IC50 at FAAH and against Rat FAAH was over 10000 nM throughout.
Regarding `O=C(Nc1cccn2ccnc12)N1CCN(Cc2ccc(OC(F)(F)F)c(Cl)c2)CC1` [Example 53, 4-(3-Chloro-4-trifluoromethoxy-benzyl)-piperazine-1-carboxylic acid imidazo[1,2-a]pyridin-8-ylamide], the concentration for half-maximal inhibition (IC50) on FAAH was found to be 1300 nM; against Rat FAAH, 120 nM.
For `O=C(Nc1cccn2ccnc12)N1CCN(Cc2ccc3c(c2)OC(F)(F)O3)CC1` [Example 54, 4-(2,2-Difluoro-benzo[1,3]dioxol-5-ylmethyl)-piperazine-1-carboxylic acid imidazo[1,2-a]pyridin-8-ylamide] the same measures were 6000 nM and 350 nM.
For `O=C(Nc1cn2ccccc2n1)N1CCN(Cc2cccc(Oc3ccc(Cl)cc3)c2)CC1` [Example 55, 4-[3-(4-Chloro-phenoxy)-benzyl]-piperazine-1-carboxylic acid imidazo[1,2-a]pyridin-2-ylamide] the same measures were over 10000 nM and over 10000 nM.
For `O=C(Nc1cn2ccccc2n1)N1CCN(Cc2ccc(OC(F)(F)F)c(Cl)c2)CC1` [Example 56, 4-(3-Chloro-4-trifluoromethoxy-benzyl)-piperazine-1-carboxylic acid imidazo[1,2-a]pyridin-2-ylamide] the same measures were over 10000 nM and over 10000 nM.
Take `O=C(NC1=NS(=O)(=O)c2ccccc21)N1CCN(Cc2cccc(Oc3ccc(Cl)cc3)c2)CC1` [Example 59, 4-[3-(4-Chloro-phenoxy)-benzyl]-piperazine-1-carboxylic acid (1,1-dioxo-1H-λ^6-benzo[d]isothiazol-3-yl)-amide]: the IC50 against FAAH and on Rat FAAH was 2000 nM throughout.
Consider `O=C(Nc1ccnc2[nH]ccc12)N1CCN(Cc2cccc(Oc3ccc(Cl)cc3)c2)CC1` [Example 61, 4-[3-(4-Chloro-phenoxy)-benzyl]-piperazine-1-carboxylic acid (1H-pyrrolo[2,3-b]pyridin-4-yl)-amide], for which the IC50 against FAAH stood at 1000 nM; at Rat FAAH, 6000 nM.
For `CC(C)n1ncc2cc(NC(=O)N3CCN(Cc4cccc(Oc5ccc(Cl)cc5)c4)CC3)cnc21` [Example 62, 4-[3-(4-Chloro-phenoxy)-benzyl]-piperazine-1-carboxylic acid (1-isopropyl-1H-pyrazolo[3,4-b]pyridin-5-yl)-amide] the same measures were 220 nM and 4000 nM.
For the compound `Cc1nn(C)c2ncc(NC(=O)N3CCN(Cc4cccc(Oc5ccc(Cl)cc5)c4)CC3)cc12` [Example 64, 4-[3-(4-Chloro-phenoxy)-benzyl]-piperazine-1-carboxylic acid (1,3-dimethyl-1H-pyrazolo[3,4-b]pyridin-5-yl)-amide], the IC50 is 26 nM at FAAH and 95 nM at Rat FAAH.
For `Cn1cc2c(NC(=O)N3CCN(Cc4cccc(Oc5ccc(Cl)cc5)c4)CC3)cccc2n1` [Example 65, 4-[3-(4-Chloro-phenoxy)-benzyl]-piperazine-1-carboxylic acid (2-methyl-2H-indazol-4-yl)-amide] the same measures were 50 nM and 28 nM.
The matching figures for `O=C(Nc1nc2ccccc2o1)N1CCN(Cc2ccc(OC(F)(F)F)c(Cl)c2)CC1` [Example 67, 4-(3-Chloro-4-trifluoromethoxy-benzyl)-piperazine-1-carboxylic acid benzooxazol-2-ylamide]: over 10000 nM and over 10000 nM.
On to `O=C(Nc1nc2ccccc2o1)N1CCN(Cc2ccc3c(c2)OC(F)(F)O3)CC1` [Example 68, 4-(2,2-Difluoro-benzo[1,3]dioxol-5-ylmethyl)-piperazine-1-carboxylic acid benzooxazol-2-ylamide], for which the IC50 on FAAH and against Rat FAAH was over 10000 nM in each case.
`O=C(Nc1cccc2nccn12)N1CCN(Cc2ccc(OC(F)(F)F)c(Cl)c2)CC1` [Example 70, 4-(3-Chloro-4-trifluoromethoxy-benzyl)-piperazine-1-carboxylic acid imidazo[1,2-a]pyridin-5-ylamide]: the IC50 at FAAH was 67 nM; against Rat FAAH, 38 nM.

Values taken from patent US8877769B2, “Heteroaryl-substituted urea modulators of fatty acid amide hydrolase” (Janssen Pharmaceutica NV, priority 2008, dated 2014).
